Test results reported in patent US8350118B2, “Allergic disease model animals” (Keio University, priority 2008, dated 2013).

System: Langerhans cells
Test: corneum-barrier transmission: uptake into Langerhans cells after application to ear skin surface
Format: in vivo, mouse
Conditions: 7 weeks of age, 10 mg/mL applied to skin surface inside the ear, ears collected after 24 hours
Source text: To confirm that the skin-barrier function is impaired in FLG-gene deficient mice, a method was developed for evaluating skin-barrier function based on the amount of uptake of antigen into Langerhans cells that are antigen-presenting cells in epidermis, to examine the skin-barrier function in FLG^−/− mice and wild-type mice. In a conventional method for evaluating antigen uptake into Langerhans cells by externally applying antigen to the skin, reagents such as FITC that easily pass through the corneum barrier has been used. However, a change in the corneum-barrier transmission due to loss of filaggrin cannot be observed by the methods using reagents that easily pass through the corneum barrier. Thus the present inventors established for the first time a method for evaluating corneum-barrier transmission using sulfo-NHS-LC-biotin which is a cell-membrane impermeable, protein-biotinylating reagent. This method has enabled the observation of a change in corneum-barrier transmission. The structural formula of sulfo-NHS-LC-biotin is shown below. Sulfo-NHS-LC-biotin (#21335; Thermo Scientific) was applied to a FLG^−/− mouse and a wild-type littermate mouse at 7 weeks of age on the skin surface inside the ear, and the uptake into Langerhans cells was observed under a fluorescence microscope. […]

O=C(CCCCC1SCC2NC(=O)NC21)NCCCCCC(=O)ON1C(=O)CC(S(=O)(=O)[O-])C1=O.[Na+] (centres unmarked) [biotin, sulfo-NHS-LC-biotin]
biotin uptake into Langerhans cells (FLG−/− mouse): biotin (green) taken up was accumulated in Langerhans cell body (red)
biotin uptake into Langerhans cells (wild-type littermate mouse): no biotin (green) uptake into Langerhans cells (red) was observed
